Results published in the supplement of paper PMC10307832.

Tests used:
Assay in all cases: relative viability (nuclei count vs DMSO), 5 days (fraction); higher = more cells survive
Erlotinib + Luminespib = compound: C#Cc1cccc(Nc2ncnc3cc(OCCOC)c(OCCOC)cc23)c1 [Erlotinib] + CCNC(=O)c1noc(-c2cc(C(C)C)c(O)cc2O)c1-c1ccc(CN2CCOCC2)cc1 [Luminespib] (partner 0.01 µM)
Procedure, shortened: (§1)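 Values are medians from duplicate plates. Each reflects relative viability, defined as the nuclei count of treated wells over that of vehicle wells. Lung cancer cell lines in 1536-well plates were pin-tool dosed one day after seeding with one drug alone or with a fixed anchor-drug dose plus five library-drug doses (not always all listed) in √10 steps, then fixed, stained and imaged at 4× after 5 days.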

AT9283 + Decitabine = compound: O=C(Nc1c[nH]nc1-c1nc2ccc(CN3CCOCC3)cc2[nH]1)NC1CC1 [AT9283] + Nc1ncn([C@H]2C[C@H](O)[C@@H](CO)O2)c(=O)n1 [Decitabine] (partner 2 µM)
Procedure, shortened: as §1

Erlotinib + Bortezomib = compound: C#Cc1cccc(Nc2ncnc3cc(OCCOC)c(OCCOC)cc23)c1 [Erlotinib] + CC(C)C[C@H](NC(=O)[C@H](Cc1ccccc1)NC(=O)c1cnccn1)B(O)O [Bortezomib] (partner 0.002 µM)
Procedure, shortened: as §1

AT9283 + OSI-027 = compound: O=C(Nc1c[nH]nc1-c1nc2ccc(CN3CCOCC3)cc2[nH]1)NC1CC1 [AT9283] + COc1cccc2cc(-c3nc([C@H]4CC[C@H](C(=O)O)CC4)n4ncnc(N)c34)[nH]c12 [OSI-027] (partner 0.5 µM)
Procedure, shortened: as §1

AT9283 + Alpelisib = compound: O=C(Nc1c[nH]nc1-c1nc2ccc(CN3CCOCC3)cc2[nH]1)NC1CC1 [AT9283] + Cc1nc(NC(=O)N2CCC[C@H]2C(N)=O)sc1-c1ccnc(C(C)(C)C(F)(F)F)c1 [Alpelisib] (partner 2 µM)
Procedure, shortened: as §1

Cell Line	relative viability (Erlotinib + Luminespib; first compound 0.02 µM)	relative viability (Erlotinib + Luminespib; first compound 0.2 µM)	relative viability (Erlotinib + Luminespib; first compound 0.6325 µM)	relative viability (Erlotinib + Luminespib; first compound 2 µM)	relative viability (AT9283 + Decitabine; first compound 0.003 µM)	relative viability (AT9283 + Decitabine; first compound 0.03 µM)	relative viability (AT9283 + Decitabine; first compound 0.09487 µM)	relative viability (AT9283 + Decitabine; first compound 0.3 µM)	relative viability (Erlotinib + Bortezomib; first compound 0.02 µM)	relative viability (Erlotinib + Bortezomib; first compound 0.2 µM)	relative viability (Erlotinib + Bortezomib; first compound 0.6325 µM)	relative viability (Erlotinib + Bortezomib; first compound 2 µM)	relative viability (AT9283 + OSI-027; first compound 0.003 µM)	relative viability (AT9283 + OSI-027; first compound 0.03 µM)	relative viability (AT9283 + OSI-027; first compound 0.09487 µM)	relative viability (AT9283 + OSI-027; first compound 0.3 µM)	relative viability (AT9283 + Alpelisib; first compound 0.003 µM)	relative viability (AT9283 + Alpelisib; first compound 0.03 µM)	relative viability (AT9283 + Alpelisib; first compound 0.09487 µM)	relative viability (AT9283 + Alpelisib; first compound 0.3 µM)
ChaGo-K-1	0.635	0.541	0.604	0.505	0.483	0.523	0.26	0.222	0.847	1.09	1.23	0.749	0.54	0.575	0.279	0.189	–	–	–	–
EBC-1	–	–	–	–	–	–	–	–	0.609	0.588	0.477	0.587	–	–	–	–	0.961	0.291	0.176	0.177
EKVX	0.833	0.615	0.444	0.207	0.38	0.246	0.234	0.215	1.13	0.513	0.323	0.17	0.661	0.655	0.503	0.26	0.934	0.726	0.356	0.218
EMC-BAC-2	1.12	1.06	1.19	1.03	0.992	0.496	0.338	0.321	1.09	0.972	1.05	–	0.369	0.325	0.197	0.149	0.775	0.499	0.173	0.157
EPLC-272H	0.176	0.233	0.326	0.196	0.379	0.395	0.185	0.161	–	0.875	0.989	0.828	0.287	0.312	0.209	0.224	0.872	0.831	0.954	0.2
H3255	0.768	0.531	0.326	0.295	0.577	0.556	0.352	0.222	0.99	0.758	0.244	0.179	0.683	0.659	0.548	0.306	0.652	0.68	0.443	0.178
HARA	0.784	0.417	0.586	0.255	0.46	0.264	0.165	0.185	1.2	1.01	0.959	0.867	0.612	0.327	0.073	0.0736	0.643	0.844	0.0814	0.0973
HCC-15	0.241	0.376	0.236	0.208	0.604	0.309	0.182	0.126	1.01	1.12	1.12	0.969	0.61	0.412	0.153	0.157	0.874	0.598	0.134	0.135
HCC-44	0.912	1.02	1.62	1.03	0.702	0.969	0.749	0.871	0.99	–	0.982	0.899	0.466	0.555	0.185	0.21	0.784	0.795	0.2	0.116
